Test results as given in ChEMBL document CHEMBL3862010, “N-Arylsulfonyl-α-amino carboxamides are potent and selective inhibitors of the chemokine receptor CCR10 that show efficacy in the murine DNFB model of contact hypersensitivity” (Bioorg Med Chem Lett, 2016).

Key:
Format in all cases: functional, cell-based, CHO-K1
[1] = molecular target: T1, C-C chemokine receptor type 10 (Homo sapiens, UniProt P46092); experiment: Antagonist activity at human CCR10 expressed in CHOK1 cells coexpressing aequorin/Galphaq assessed as inhibition of human CCL27-dependent calcium flux in presence of coelenterazine H by chemiluminescence assay; conditions: read-out: pIC50 (converted)
T1 sequence (P46092 whole entry): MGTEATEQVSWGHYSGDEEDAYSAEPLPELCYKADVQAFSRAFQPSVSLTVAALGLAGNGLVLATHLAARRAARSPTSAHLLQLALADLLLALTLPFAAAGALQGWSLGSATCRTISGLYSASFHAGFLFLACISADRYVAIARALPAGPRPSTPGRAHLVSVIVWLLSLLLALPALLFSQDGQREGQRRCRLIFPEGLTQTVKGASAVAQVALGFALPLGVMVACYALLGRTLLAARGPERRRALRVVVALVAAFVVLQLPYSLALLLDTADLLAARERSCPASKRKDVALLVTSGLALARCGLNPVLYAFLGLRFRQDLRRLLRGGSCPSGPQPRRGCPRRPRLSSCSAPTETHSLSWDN

[2] = molecular target: T2, C-C chemokine receptor type 10 (Mus musculus, UniProt Q9JL21); experiment: Antagonist activity at mouse CCR10 expressed in CHOK1 cells coexpressing aequorin/Galphaq assessed as inhibition of CCL27-dependent calcium flux in presence of coelenterazine H by chemiluminescence assay
T2 sequence (Q9JL21 whole entry): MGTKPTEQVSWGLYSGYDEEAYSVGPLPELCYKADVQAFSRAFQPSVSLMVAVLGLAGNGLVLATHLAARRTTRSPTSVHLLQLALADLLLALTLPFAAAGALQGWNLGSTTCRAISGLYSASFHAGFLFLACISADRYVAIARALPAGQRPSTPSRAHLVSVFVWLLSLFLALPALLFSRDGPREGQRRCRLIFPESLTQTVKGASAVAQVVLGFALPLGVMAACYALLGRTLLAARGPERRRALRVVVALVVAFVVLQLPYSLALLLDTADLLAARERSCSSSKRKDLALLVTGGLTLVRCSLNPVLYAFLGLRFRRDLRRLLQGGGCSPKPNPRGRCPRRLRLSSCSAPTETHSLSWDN

[3] = molecular target: T1, C-C chemokine receptor type 10; experiment: Antagonist activity at human CCR10 expressed in CHOK1 cells coexpressing aequorin/Galphaq assessed as inhibition of CCL27-dependent calcium flux in presence of coelenterazine H by FLIPR assay

Structure (SMILES)	IC50 [1] [nM]	IC50 [2] [nM]	IC50 [3] [nM]
CC1CCN(C(=O)C(CCn2cccc2C#N)NS(=O)(=O)c2c(N)cc(Cl)cc2Cl)CC1 (stereo unspecified)	39.8	–	–
N#Cc1cccn1CCC(NS(=O)(=O)c1cccc2[nH]ccc12)C(=O)N1CCC(C(F)(F)F)CC1 (stereo unspecified)	10	–	–
N#Cc1cccn1CCC(NS(=O)(=O)c1cc(Cl)c(N)c(Cl)c1)C(=O)N1CCC(C(F)(F)F)CC1 (stereo unspecified)	398	–	–
N#Cc1cccn1CCC(NS(=O)(=O)c1cccc2[nH]ccc12)C(=O)N1CCCCCC1 (stereo unspecified)	25.1	–	–
CC1CCCCN1C(=O)C(CCn1cccc1C#N)NS(=O)(=O)c1cccc2[nH]ccc12 (stereo unspecified)	20	–	–
CC1CCN(C(=O)C(CCn2cccc2C#N)NS(=O)(=O)c2ccccc2)CC1 (stereo unspecified)	1260	> 20000	–
Cc1ccc(S(=O)(=O)NC(CCn2cccc2C#N)C(=O)N2CCC(C)CC2)c(C)c1N (stereo unspecified)	100	–	–
CC1CCCN(C(=O)C(CCn2cccc2C#N)NS(=O)(=O)c2cccc3[nH]ccc23)C1 (stereo unspecified)	63.1	–	–
CN(C)C(=O)C(CCn1cccc1C#N)NS(=O)(=O)c1cccc2[nH]ccc12 (stereo unspecified)	3980	–	–
CC1CCN(C(=O)C(CCn2cccc2C#N)NS(=O)(=O)c2cc(Cl)c(N)cc2Cl)CC1 (stereo unspecified)	63.1	–	–
CC1CCN(C(=O)C(CCn2cccc2C#N)NS(=O)(=O)c2cccc3cc[nH]c23)CC1 (stereo unspecified)	251	7940	–

More lines, now with the values ahead:

IC50 [1] [nM]	IC50 [2] [nM]	IC50 [3] [nM]	Structure (SMILES)
631	–	–	CC1CCCN(C(=O)C(CCn2cccc2C#N)NS(=O)(=O)c2cc(Cl)c(N)c(Cl)c2)C1 (stereo unspecified)
> 20000	–	–	CC1CCN(C(=O)C(CCn2ccnn2)NS(=O)(=O)c2cc(Cl)c(N)c(Cl)c2)CC1 (stereo unspecified)
> 10000	–	–	CC1CCN(C(=O)[C@H](CCc2ccccc2)NS(=O)(=O)c2cc(Cl)c(N)c(Cl)c2)CC1
7.94	–	–	CC1CCN(C(=O)[C@@H](CCn2cccc2C#N)NS(=O)(=O)c2cc(Cl)c(N)c(Cl)c2)CC1
501	–	–	CC1CCN(C(=O)[C@@H](CCn2ccnc2[N+](=O)[O-])NS(=O)(=O)c2cc(Cl)c(N)c(Cl)c2)CC1
> 20000	–	–	CC1CCN(C(=O)[C@H](CCn2ccnc2[N+](=O)[O-])NS(=O)(=O)c2cc(Cl)c(N)c(Cl)c2)CC1
3160	–	–	CC1CCN(C(=O)C(CCn2nccn2)NS(=O)(=O)c2cc(Cl)c(N)c(Cl)c2)CC1 (stereo unspecified)
63.1	3160	–	CC1CCN(C(=O)C(CCn2nccc2C#N)NS(=O)(=O)c2cc(Cl)c(N)c(Cl)c2)CC1 (stereo unspecified)
–	–	> 20000	CC1CCN(C(=O)C(CCn2ccnc2)NS(=O)(=O)c2cc(Cl)c(N)c(Cl)c2)CC1 (stereo unspecified)
631	10000	–	CC1CCN(C(=O)[C@@H](CCc2ccccc2)NS(=O)(=O)c2cc(Cl)c(N)c(Cl)c2)CC1
1580	–	–	CC1CCN(C(=O)C(CCn2cccn2)NS(=O)(=O)c2cc(Cl)c(N)c(Cl)c2)CC1 (stereo unspecified)
